Experimental data: ChEMBL document CHEMBL3885881, “DrugMatrix”

Organism: Rattus norvegicus
Assay: DrugMatrix - Regimen: Daily Repeat
Assay type: toxicity, organism-based, Sprague-Dawley
Set-up: regimen Daily Repeat, gender Male, age 6-8 weeks
Details: in vivo, po, 0 mg/kg, route oral GAVAGE, dose level Control, vehicle .5 % CMC; for BASOPHIL / EOSINOPHIL / ERYTHROCYTE COUNT / HEMATOCRIT / HEMOGLOBIN / LEUKOCYTE COUNT / LYMPHOCYTE / MEAN CORPUSCULAR HEMOGLOBIN / MEAN CORPUSCULAR HEMOGLOBIN CONCENTRATION / MEAN CORPUSCULAR VOLUME / MONOCYTE / NEUTROPHIL / PLATELET COUNT: tissue Blood; for ALANINE AMINOTRANSFERASE / ALBUMIN / ALKALINE PHOSPHATASE / ASPARTATE AMINOTRANSFERASE / BLOOD UREA NITROGEN / CHLORIDE / CHOLESTEROL / CREATINE PHOSPHOKINASE / CREATININE / GLUCOSE / PHOSPHORUS / POTASSIUM / SODIUM / TOTAL BILIRUBIN / TOTAL PROTEIN: tissue Plasma

**Q.** What does the source list for `C[C@]12C/C(=C/O)C(=O)C[C@@H]1CC[C@@H]1[C@@H]2CC[C@@]2(C)[C@H]1CC[C@]2(C)O` [OXYMETHOLONE]?
**A.** BASOPHIL (72 h, time 3 day): 0.68%; EOSINOPHIL (72 h, time 3 day): 0.46%; ERYTHROCYTE COUNT (72 h, time 3 day): 7.15 x10E6/uL; HEMATOCRIT (72 h, time 3 day): 45.44%; HEMOGLOBIN (72 h, time 3 day): 14.1 G/DL; LEUKOCYTE COUNT (72 h, time 3 day): 9.78 x10E3/uL; LYMPHOCYTE (72 h, time 3 day): 84.44%; MEAN CORPUSCULAR HEMOGLOBIN (72 h, time 3 day): 19.72 pg; MEAN CORPUSCULAR HEMOGLOBIN CONCENTRATION (72 h, time 3 day): 31 G/DL; MEAN CORPUSCULAR VOLUME (72 h, time 3 day): 63.66 fL; MONOCYTE (72 h, time 3 day): 2.14%; NEUTROPHIL (72 h, time 3 day): 11.16%; PLATELET COUNT (72 h, time 3 day): 1378.2 x10E3/uL; ALANINE AMINOTRANSFERASE (72 h, time 3 day): 42.33 u/L; ALBUMIN (72 h, time 3 day): 3.8 G/DL; ALKALINE PHOSPHATASE (72 h, time 3 day): 388.17 u/L; ASPARTATE AMINOTRANSFERASE (72 h, time 3 day): 68 u/L; BLOOD UREA NITROGEN (72 h, time 3 day): 16.17 mg/dL; CHLORIDE (72 h, time 3 day): 96.67 MEQ/L; CHOLESTEROL (72 h, time 3 day): 71 mg/dL; CREATINE PHOSPHOKINASE (72 h, time 3 day): 156.17 u/L; CREATININE (72 h, time 3 day): 0.57 mg/dL; GLUCOSE (72 h, time 3 day): 193.67 mg/dL; PHOSPHORUS (72 h, time 3 day): 11.43 mg/dL; POTASSIUM (72 h, time 3 day): 7 MEQ/L; SODIUM (72 h, time 3 day): 140.33 MEQ/L; TOTAL BILIRUBIN (72 h, time 3 day): 0.48 mg/dL; TOTAL PROTEIN (72 h, time 3 day): 6.8 G/DL; BASOPHIL (120 h, time 5 day): 1.47%; EOSINOPHIL (120 h, time 5 day): 1%; ERYTHROCYTE COUNT (120 h, time 5 day): 7.12 x10E6/uL; HEMATOCRIT (120 h, time 5 day): 45.47%; HEMOGLOBIN (120 h, time 5 day): 14.1 G/DL; LEUKOCYTE COUNT (120 h, time 5 day): 11.38 x10E3/uL; LYMPHOCYTE (120 h, time 5 day): 82.57%; MEAN CORPUSCULAR HEMOGLOBIN (120 h, time 5 day): 19.82 pg; MEAN CORPUSCULAR HEMOGLOBIN CONCENTRATION (120 h, time 5 day): 31.02 G/DL; MEAN CORPUSCULAR VOLUME (120 h, time 5 day): 63.88 fL; MONOCYTE (120 h, time 5 day): 2.2%; NEUTROPHIL (120 h, time 5 day): 11.97%; PLATELET COUNT (120 h, time 5 day): 1267 x10E3/uL; ALANINE AMINOTRANSFERASE (120 h, time 5 day): 38 u/L; ALBUMIN (120 h, time 5 day): 3.72 G/DL; ALKALINE PHOSPHATASE (120 h, time 5 day): 391 u/L; ASPARTATE AMINOTRANSFERASE (120 h, time 5 day): 65.83 u/L; BLOOD UREA NITROGEN (120 h, time 5 day): 14.17 mg/dL; CHLORIDE (120 h, time 5 day): 107.67 MEQ/L; CHOLESTEROL (120 h, time 5 day): 61 mg/dL; CREATINE PHOSPHOKINASE (120 h, time 5 day): 148.33 u/L; CREATININE (120 h, time 5 day): 0.57 mg/dL; GLUCOSE (120 h, time 5 day): 177.17 mg/dL; PHOSPHORUS (120 h, time 5 day): 12.07 mg/dL; POTASSIUM (120 h, time 5 day): 7.2 MEQ/L; SODIUM (120 h, time 5 day): 151.5 MEQ/L; TOTAL BILIRUBIN (120 h, time 5 day): 0.58 mg/dL; TOTAL PROTEIN (120 h, time 5 day): 6.72 G/DL
